The target in experiment [1] is IL-17A(FLAG-tagged): IL-17RA(His-tagged) (Homo sapiens, UniProt Q16552, K93Q). In words: IL-17A(FLAG-tagged): IL-17RA(His-tagged) binding disruption Eu-HTRF assay. To be noted: class of the average IC50 where tested more than once. An excerpt: IL-17A(FLAG-tagged): IL-17RA(His-tagged) binding disruption Eu-HTRF assay An antibody directed against the FLAG tag of IL-17A (SEQ ID NO: 1) is labeled with the HTRF donor chromophore (Europium-cryptate). IL-17A is present as a dimer that is “locked into” this quaternary structure due to the formation of loop-spanning intramolecular disulfide bridges. The construct of IL-17RA used in the assay excludes the […] portion of the receptor and is fused to a C-terminal 10×His tag (SEQ ID NO:2). An antibody directed against the His tag of the IL-17RA chimera is labeled with the HTRF acceptor chromophore (“D2”). The fluorescence-resonance energy transfer (FRET) depends on the vicinity of the donor chromophore to the acceptor, and interruption of the binding between the IL-17A and IL-17RA causes the reduction/loss of FRET. Therefore, this assay allows to evaluate the compound effect on the binding IL-17A and IL-17RA by monitoring the fluorescence intensity of donor vs acceptor. The assay is run as described below.
40 nl of 2-fold serial diluted compound solution for total 22 dilution points is added into each well of a 1536-well, white, low-volume, non-binding plate (Greiner #782904), then 2 μl of FLAG tagged IL-17A at 2× final concentration (1 μM) in solution of PBS+0.01% Triton-X100 is added to each well. The assay plate is briefly centrifuged then incubated for 1 h at rt. A mixed solution is prepared containing 2×5 nM 10HIS×IL-17RA, 2×2.5 nM Eu-anti-FLAG (CISBIO), 2×5 nM D2-anti-HIS (CISBIO) in PBS+0.01% Triton-X100+200 mM Potassium Fluoride (Sigma 60238) and 2 μl of mix is added to each well of the assay plate. The plate is briefly centrifuged then incubated for 2 h at rt. The HTRF intensities at the wavelength of donor (615 nm) and acceptor (665 nm) are measured using BMG Pherastar. The ratio between intensities at two wavelengths is calculated and plotted against the compound concentration and the data is fitted to a one-site competition model to yield IC50 of the compound.
(In general: TR-FRET usually uses a lanthanide donor and a delayed reading to cut background.)

Experiment [2] deals with IL-17A-induced G-CSF production in human normal keratinocyte (NHK). Kind of experiment: NHK assay: IL-17A-induced G-CSF production in normal human keratinocytes. To be noted: Homo sapiens, Keratinocyte, 24 h, IL-17A 5 ng/mL, class of the average IC50 where tested more than once. It counts as cell-based. How it is done:
IL-17A acts directly on keratinocytes through binding to dimeric receptor IL-17RA/RC and drives the production of a number of inflammatory mediators known to be elevated in psoriasis lesional tissue. IL-17A small molecule inhibitors that block the IL-17A to interact with IL-17R would inhibit the IL-17A signaling in its targeted cells such as keratinocytes. The compound functional activity is evaluated for its impact on IL-17A-induced G-CSF production in human normal keratinocyte (NHK).
Adult normal human keratinocytes are cultured in keratinocyte growth medium (Lonza) in a flask till reaching ~90% confluence, then cells are transferred to a 384-well plate at density of 3000-4000 cell/well. Recombinant human IL-17A (Gibco PHC9174) is pre-incubated with titrated compound or DMSO for 1 h at rt then added to the cell culture plate. The final concentration of IL-17A is 5 ng/mL and DMSO is 0.2%, in the culture containing 5% FBS. Cells are cultured/treated for 24 h at 37° C. Supernatants are collected and G-CSF production is measured through HTRF technology using Human G-CSF Kit (CisBio). G-CSF concentration was extrapolated from the standard curve and IC50 is determined using GraphPad Prism. Cell viability is also evaluated using CellTiter-Glo kit (Promega) and effect of compound on cell viability is compared to DMSO control.

UniProt Q16552, sequence (Q16552 with tags, fused parts or gaps K93Q): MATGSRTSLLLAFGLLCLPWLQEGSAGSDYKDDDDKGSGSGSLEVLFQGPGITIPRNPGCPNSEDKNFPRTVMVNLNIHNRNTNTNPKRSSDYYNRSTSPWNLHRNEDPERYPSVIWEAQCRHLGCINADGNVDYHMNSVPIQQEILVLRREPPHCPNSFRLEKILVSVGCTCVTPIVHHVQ

As to `CC1(C(=O)c2cnn3cc([C@@H](NC(=O)c4nonc4C4CC4)C4CCC(F)(F)CC4)nc3c2)C[C@@H](C(F)(F)F)NC1=O` (mixture of isomers) [Example 102, 4-Cyclopropyl-N—[(S)-(4,4-difluorocyclohexyl)-[7-[(3RS,5S)-3-methyl-2-oxo-5-(trifluoromethyl)pyrrolidine-3-carbonyl]imidazo[1,2-b]pyridazin-2-yl]methyl]-1,2,5-oxadiazole-3-carboxamide], the IC50 in experiment [1] and in experiment [2] was below 0.4 µM in each case.
Take `O=C(N[C@H](c1cn2ncc(C[C@]34CCC[C@@H](C3)NC4=O)cc2n1)C1CCC(F)(F)CC1)c1nonc1C1CC1` (relative stereo) [Example 12, 4-Cyclopropyl-N—[(S)-(4,4-difluorocyclohexyl)-[7-[[(1S*5S*)-7-oxo-6-azabicyclo[3.2.1]octan-1-yl]methyl]imidazo[1,2-b]pyridazin-2-yl]methyl]-1,2,5-oxadiazole-3-carboxamide]: the IC50 in experiment [1] was above 4 µM; in experiment [2] it was 0.4 to 4 µM.
For the compound `CC[C@@H](c1cnn2cc([C@@H](NC(=O)c3nonc3C3CC3)C3CCC(F)(F)CC3)nc2c1)[C@@H]1C[C@@H](C(F)(F)F)NC1=O` (relative stereo) [Example 20, 4-Cyclopropyl-N—((S)-(4,4-difluorocyclohexyl)(7-((R*)-1-((3S*,5S)-2-oxo-5-(trifluoromethyl)pyrrolidin-3-yl)propyl)imidazo[1,2-b]pyridazin-2-yl)methyl)-1,2,5-oxadiazole-3-carboxamide], the concentration for half-maximal inhibition (IC50) in experiment [1] and in experiment [2] was 0.4 to 4 µM in each case.
As to `O=C(N[C@H](c1cn2ncc([C@@H]3C[C@@]34C[C@@H](C(F)(F)F)NC4=O)cc2n1)C1CCC(F)(F)CC1)c1nonc1C1CC1` (relative stereo) [Example 38, 4-Cyclopropyl-N—((S)-(4,4-difluorocyclohexyl)(7-((1S*,3R*,6S)-4-oxo-6-(trifluoromethyl)-5-azaspiro[2.4]heptan-1-yl)imidazo[1,2-b]pyridazin-2-yl)methyl)-1,2,5-oxadiazole-3-carboxamide], the IC50 in experiment [1] is below 0.4 µM; in experiment [2] it was 0.4 to 4 µM.
On to `O=C(N[C@H](c1cn2ncc([C@@H]3C[C@]34C[C@@H](C(F)(F)F)NC4=O)cc2n1)C1CCC(F)(F)CC1)c1nonc1C1CC1` (relative stereo) [Example 39, 4-Cyclopropyl-N—((S)-(4,4-difluorocyclohexyl)(7-((S*,3S*,6S)-4-oxo-6-(trifluoromethyl)-5-azaspiro[2.4]heptan-1-yl)imidazo[1,2-b]pyridazin-2-yl)methyl)-1,2,5-oxadiazole-3-carboxamide], for which the IC50 in experiment [1] and in experiment [2] was above 4 µM each time.
`O=C(N[C@H](c1cn2ncc([C@H]3C[C@@]34C[C@@H](C(F)(F)F)NC4=O)cc2n1)C1CCC(F)(F)CC1)c1nonc1C1CC1` (relative stereo) [Example 41, 4-Cyclopropyl-N—((S)-(4,4-difluorocyclohexyl)(7-((1R*,3R*,6S)-4-oxo-6-(trifluoromethyl)-5-azaspiro[2.4]heptan-1-yl)imidazo[1,2-b]pyridazin-2-yl)methyl)-1,2,5-oxadiazole-3-carboxamide]: the IC50 in experiment [1] and in experiment [2] was above 4 µM throughout.
With `O=C(N[C@H](c1cn2ncc(C[C@H]3C(=O)NCC[C@H]3C(F)(F)F)cc2n1)C1CCC(F)(F)CC1)c1nonc1C1CC1` (relative stereo) [Example 44, 4-Cyclopropyl-N—((S)-(4,4-difluorocyclohexyl)(7-(((3R*,4R*)-2-oxo-4-(trifluoromethyl)piperidin-3-yl)methyl)imidazo[1,2-b]pyridazin-2-yl)methyl)-1,2,5-oxadiazole-3-carboxamide], the IC50 in experiment [1] is 0.4 to 4 µM; in experiment [2], above 4 µM.
With `O=C(N[C@H](c1cn2ncc(C[C@@H]3C(=O)NCC[C@@H]3C(F)(F)F)cc2n1)C1CCC(F)(F)CC1)c1nonc1C1CC1` (relative stereo) [Example 45, 4-Cyclopropyl-N—((S)-(4,4-difluorocyclohexyl)(7-(((3S*,4S*)-2-oxo-4-(trifluoromethyl)piperidin-3-yl)methyl)imidazo[1,2-b]pyridazin-2-yl)methyl)-1,2,5-oxadiazole-3-carboxamide], the IC50 in experiment [1] was 0.4 to 4 µM; in experiment [2], above 4 µM.
On to `Cc1nonc1C(=O)N[C@H](c1cn2ncc(C[C@H]3CC[C@H](C(F)(F)F)NC3=O)cc2n1)C1CCC(F)(F)CC1` (relative stereo) [Example 46, N—((S)-(4,4-difluorocyclohexyl)(7-(((3R*,6R*)-2-oxo-6-(trifluoromethyl)piperidin-3-yl)methyl)imidazo[1,2-b]pyridazin-2-yl)methyl)-4-methyl-1,2,5-oxadiazole-3-carboxamide], for which the IC50 in experiment [1] and in experiment [2] was above 4 µM throughout.
For `Cc1nonc1C(=O)N[C@H](c1cn2ncc(C[C@H]3CC[C@@H](C(F)(F)F)NC3=O)cc2n1)C1CCC(F)(F)CC1` (relative stereo) [Example 47, N—((S)-(4,4-difluorocyclohexyl)7-(((3R*,6S*)-2-oxo-6-(trifluoromethyl)piperidin-3-yl)methyl)imidazo[1,2-b]pyridazin-2-yl)methyl)-4-methyl-1,2,5-oxadiazole-3-carboxamide], the IC50 is below 0.4 µM in experiment [1] and 0.4 to 4 µM in experiment [2].
As to `Cc1nonc1C(=O)N[C@H](c1cn2ncc(C[C@@H]3CC[C@H](C(F)(F)F)NC3=O)cc2n1)C1CCC(F)(F)CC1` (relative stereo) [Example 48, N—((S)-(4,4-difluorocyclohexyl)7-(((3S*,6R*)-2-oxo-6-(trifluoromethyl)piperidin-3-yl)methyl)imidazo[1,2-b]pyridazin-2-yl)methyl)-4-methyl-1,2,5-oxadiazole-3-carboxamide], the IC50 in experiment [1] and in experiment [2] was above 4 µM in each case.
In turn, `CC[C@H]1C[C@H](Cc2cnn3cc([C@@H](NC(=O)c4nonc4C4CC4)C4CCC(F)(F)CC4)nc3c2)C(=O)N1` (relative stereo) [Example 91, 4-Cyclopropyl-N—[(S)-(4,4-difluorocyclohexyl)-[7-[[(3S*,5S*)-5-ethyl-2-oxo-pyrrolidin-3-yl]methyl]imidazo[1,2-b]pyridazin-2-yl]methyl]-1,2,5-oxadiazole-3-carboxamide] showed an IC50 in experiment [1] of 0.4 to 4 µM.
In the case of `CC[C@H]1C[C@@H](Cc2cnn3cc([C@@H](NC(=O)c4nonc4C4CC4)C4CCC(F)(F)CC4)nc3c2)C(=O)N1` (relative stereo) [Example 92, 4-Cyclopropyl-N—[(S)-(4,4-difluorocyclohexyl)-[7-[[(3R*,5S*)-5-ethyl-2-oxo-pyrrolidin-3-yl]methyl]imidazo[1,2-b]pyridazin-2-yl]methyl]-1,2,5-oxadiazole-3-carboxamide], in experiment [1], the IC50 is above 4 µM.
The compound `O=C(N[C@H](c1cn2ncc(CC3CCCNC3=O)cc2n1)C1CCC(F)(F)CC1)c1nonc1C1CC1` (single isomer, unassigned) [Example 23, 4-Cyclopropyl-N—[(S)-(4,4-difluorocyclohexyl)-[7-[[(3R*)-2-oxo-3-piperidyl]methyl]imidazo[1,2-b]pyridazin-2-yl]methyl]-1,2,5-oxadiazole-3-carboxamide] returned an IC50 in experiment [1] of 0.4 to 4 µM.
Take `O=C(N[C@H](c1cn2ncc(CC3CCCNC3=O)cc2n1)C1CCC(F)(F)CC1)c1nonc1C1CC1` (single isomer, unassigned) [Example 24, 4-Cyclopropyl-N—[(S)-(4,4-difluorocyclohexyl)-[7-[[(3S*)-2-oxo-3-piperidyl]methyl]imidazo[1,2-b]pyridazin-2-yl]methyl]-1,2,5-oxadiazole-3-carboxamide]: the IC50 in experiment [1] lay in the range of 0.4 to 4 µM.

For orientation: IC50 means the concentration that inhibits the measured activity by half.
